US8912123B2, “Safened herbicidal compositions including 4-amino-3-chloro-5-fluoro-6-(4-chloro-2-fluoro-3-methoxyphenyl)pyridine-2-carboxylic acid or a derivative thereof and methods for their use” (Dow AgroSciences, LLC., priority 2012, dated 2014)

Test system: winter barley (Hordeum vulgare, HORVW)
Assay: Post-emergence field trial, visual crop injury (ear deformation) in winter barley
Type: in vivo
Settings: for Observed Visual Injury - Ear Deformation (%) 227 DAA HORVW: no safener, 1 L/ha Agnique BL3095, post-emergence field, scale 0-100
Protocol: A post-emergence field trial was conducted under field conditions in Helbigsdorf, Germany. Trial site was located in commercially grown fields of winter barley (Hordeum vulgare, HORVW) using standard herbicide small plot research methodology. Postemergence trial plot was 2.5 meter (m)×5 m (width×length) with 3 replicates per treatment. The crop was grown using normal cultural practices for fertilization, seeding, and maintenance to ensure good growth of the crop and the weeds. Trial treatments included spray formulations containing 4-amino-3-chloro-5-fluoro-6-(4-chloro-2-fluoro-3-methoxy-phenyl)pyridine-2-carboxylic acid (Compound A) at various rates and optionally including cloquintocet mexyl. All treatments in the post-emergence field trials were applied using a bicycle sprayer compressed air/gas sprayer with flat fan nozzles (90°) calibrated to apply 200 L/ha spray volume at approximately 250 kPa nozzle pressure. The spray formulations for Trials 1-4 listed in Table 1 included Dow AgroSciences testing formulation Compound A (listed in acid equivalent per hectare (g ae/ha)), Agnique BL3095 (Cognis, France; listed as liters of product per hectare (L pr/ha)), and optionally cloquintocet mexyl (listed as grams of active ingredient per hectare (g ai/ha)). The spray solutions were mixed in water at the levels indicated in Table 1 to achieve the desired rates based on a unit area of application (hectare). Data for observed visual injury is provided for 227 days after application (DAA) in Table 1. Visual crop injury (ear deformation) was scored on a scale of 0 to 100 percent where 0 corresponds to no injury and 100 correspond to damage at all plants. All treatment results, both for the single product and mixture, are with 4 replicates. The trial sites had naturally occurring populations of weeds. The weed spectrum included loose silky-bent ([…]).

Compound | Observed Visual Injury - Ear Deformation (%) 227 DAA HORVW (Compound A 10 g ae/ha) [%] | Observed Visual Injury - Ear Deformation (%) 227 DAA HORVW (Compound A 20 g ae/ha) [%] | Observed Visual Injury - Ear Deformation (%) 227 DAA HORVW (Compound A 30 g ae/ha) [%] | Safening of the compound of formula I in winter barley (conclusion from Table 1, winter barley)
COc1c(Cl)ccc(-c2nc(C(=O)O)c(Cl)c(N)c2F)c1F [Compound A, 4-amino-3-chloro-5-fluoro-6-(4-chloro-2-fluoro-3-methoxy-phenyl)pyridine-2-carboxylic acid] | 27 | 30 | 30 | 
CCCCCC(C)OC(=O)COc1ccc(Cl)c2cccnc12 (stereo not shown) [cloquintocet-mexyl, reference compound] |  |  |  | safened
